As a reminder, the IC50 is the concentration needed to halve the response being measured. A lower IC50 goes with greater potency in that assay. As a reminder, the Papp A→B is how fast a substance crosses the layer from the apical side. As usually defined, the logD is the decadic logarithm of the distribution of all forms, ionised or not, between an organic phase and buffer at a given pH. A lower logD goes with lower lipophilicity. What is called solubility (kinetic) is solubility judged after dilution from a stock solution rather than from solid.

In one data set the target is T1, m7GpppX diphosphatase (Homo sapiens, UniProt Q96C86).
T1 sequence (Q96C86 whole entry): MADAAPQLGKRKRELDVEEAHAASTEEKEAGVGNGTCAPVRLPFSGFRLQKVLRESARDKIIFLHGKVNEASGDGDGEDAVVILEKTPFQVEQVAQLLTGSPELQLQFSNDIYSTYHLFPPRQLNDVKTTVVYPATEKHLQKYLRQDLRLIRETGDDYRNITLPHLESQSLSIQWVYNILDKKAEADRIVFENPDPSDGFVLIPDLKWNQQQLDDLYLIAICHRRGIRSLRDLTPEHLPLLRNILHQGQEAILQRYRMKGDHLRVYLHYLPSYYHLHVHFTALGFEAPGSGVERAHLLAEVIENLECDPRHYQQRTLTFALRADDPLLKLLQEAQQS

For the next data set, the target named is T2, Dihydrofolate reductase (Homo sapiens, UniProt P00374).
T2 sequence (P00374 whole entry): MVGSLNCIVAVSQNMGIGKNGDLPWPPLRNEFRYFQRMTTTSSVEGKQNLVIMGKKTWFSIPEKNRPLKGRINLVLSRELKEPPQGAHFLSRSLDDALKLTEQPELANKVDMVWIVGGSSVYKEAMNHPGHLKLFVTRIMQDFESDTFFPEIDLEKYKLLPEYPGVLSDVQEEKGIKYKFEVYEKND
Put plainly: Inhibition of DHFR (unknown origin).

A short description of data set [1]: Drug uptake in HEK293 cells at 10 nM in presence of vacuolar type ATPase inhibitor concanamycin A measured after […]. The class given is ADME, cell-based. Conditions: human, 0.01 µM; call rule not given here.
A short description of data set [2]: Apparent passive permeability across apical to basolateral side in RRCK2 cells at 2 uM. The class given is ADME, cell-based, Canis lupus familiaris. Conditions: dog, MDCK.
The nature of data set [3]: Lipophilicity, log D of the compound at pH 7.4. Particulars: buffer. Type of data set: physicochemical.
The nature of data set [4]: Drug uptake in HEK293 cells at 10 nM in presence of vacuolar type ATPase inhibitor bafilomycin measured after […]. Conditions: human, 0.01 µM. The class given is ADME, cell-based.
A short description of data set [5]: Drug uptake in lymphoblasts (unknown origin) at 10 nM in presence of vacuolar type ATPase inhibitor bafilomycin measured after […]. Type of data set: ADME, cell-based. Particulars: lymphoblast, 0.01 µM.
Data set [6] is described as follows: Kinetic solubility of the compound at pH 6.5. Particulars: buffer.
Data set [7] in a line: Drug uptake in lymphoblasts (unknown origin) at 10 nM in presence of vacuolar type ATPase inhibitor concanamycin A measured after […]. Type of data set: ADME, cell-based. Particulars: lymphoblast, 0.01 µM.
The nature of data set [8]: Stability in human liver microsomes at 1 uM. Type of data set: ADME, microsome. Particulars: read-out: Stability. Background: Liver microsomes are a subcellular fraction often used to study metabolism.
Data set [9] can be described thus: Apparent intrinsic clearance in human liver microsomes at 1 uM. Type of data set: ADME, microsome. Conditions: read-out: CLH(app).
The nature of data set [10]: Drug uptake in lymphoblasts (unknown origin) at 100 nM in presence of vacuolar type ATPase inhibitor concanamycin A measured after […]. Conditions: lymphoblast, 0.1 µM. The class given is ADME, cell-based.
The nature of data set [11]: Drug uptake in lymphoblasts (unknown origin) at 100 nM in presence of vacuolar type ATPase inhibitor bafilomycin measured after […]. Type of data set: ADME, cell-based. Conditions: lymphoblast, 0.1 µM.
The nature of data set [12]: Drug uptake in HEK293 cells at 100 nM in presence of vacuolar type ATPase inhibitor bafilomycin measured after […]. The class given is ADME, cell-based. Conditions: human, 0.1 µM.
Data set [13] is described as follows: Drug uptake in HEK293 cells at 100 nM in presence of vacuolar type ATPase inhibitor concanamycin A measured after […]. Type of data set: ADME, cell-based. Particulars: human, 0.1 µM.
Another data set relates to Plasma. Put plainly: Unbound fraction in FVB/N mouse plasma at 30 mg/kg, ip. Type of data set: ADME, organism-based. Conditions: in vivo.

≈ marks a conversion by molar mass, not a printed value. Where only a bound is given, the exact number is not on record here.

Description for m7GpppX diphosphatase: Inhibition of human DcpS assessed as increase in SMN2 promoter activity

On m7GpppX diphosphatase, `Cc1cc(OCC2CCOCC2)c2c(N)nc(N)nc2c1` yielded an IC50 above 10 µM.
On to `Nc1nc(N)c2c(COc3cccc(F)c3)cccc2n1`, for which the IC50 against Dihydrofolate reductase is above 50 µM.
Same read-out and setting: under `COC[C@H](C)Oc1cccc2nc(N)nc(N)c12` stands 1.4 µM; under `Nc1nc(N)c2c(COc3ccccc3F)cccc2n1`, above 30 µM.
`Cc1ncccc1OCc1cccc2nc(N)nc(N)c12`: the Drug uptake entry in data set [1], in data set [4], in [5] and in data set [7] was “Not Active” each time. Further, in [2], the Papp A→B at 2 µM was 18 ×10⁻⁶ cm/s. The log distribution coefficient (logD) in [3] was determined as 1.4. Besides, the half-maximal inhibitory concentration (IC50) against Dihydrofolate reductase was above 150 µM. In data set [6], this compound displayed a kinetic solubility of 274 µM (≈ 77.1 µg/mL). The half-life at 1 µM in [8] was above 120 min. Also, the microsomal CLint at 1 µM in data set [9] is below 8 µL/min/mg.
Take `Nc1nc(N)c2c(OCC3CCN(Cc4c(Cl)cccc4Cl)CC3)cccc2n1`: the Drug uptake result in data set [1], in [4], in data set [5] and in [7] was “Not Active” each time. The Papp A→B at 2 µM in data set [2] is 0.62 ×10⁻⁶ cm/s. The compound further yielded a logD in [3] of 2.8. In addition, the solubility (kinetic) in [6] came to 45 µM (≈ 19.5 µg/mL). In addition, the half-life at 1 µM in data set [8] stood at 3 min. For the same compound, the microsomal CLint at 1 µM in [9] is above 250 µL/min/mg.
As for `Nc1nc(N)c2c(OCC3CCN(Cc4c(F)cccc4Cl)CC3)cccc2n1`, the Drug uptake entry in data set [1], in data set [4], in data set [5] and in [7] was “Not Active” each time.
Regarding `Nc1nc(N)c2c(OCc3cc(F)cc(F)c3)cccc2n1`, on Dihydrofolate reductase, half-maximal inhibition (IC50) required 0.63 µM.
On the same count and under the same terms, the figure for `Nc1nc(N)c2c(OCC3CCOCC3)cccc2n1` is 28 µM.
On to `Nc1nc(N)c2c(OCC3CCN(Cc4ccccc4F)CC3)cccc2n1`, for which the Drug uptake entry in [1], in data set [4], in data set [5] and in data set [7] was “Not Active” throughout.
On Dihydrofolate reductase, `Nc1nc(N)c2c(COc3ccc(F)cc3F)cccc2n1` displayed an IC50 above 50 µM.
For the compound `Cc1cc(COc2cc(F)cc(C#N)c2)c2c(N)nc(N)nc2c1`, the IC50 at m7GpppX diphosphatase is above 10 µM.
With `CCN(CC)CCCC(C)Nc1ccnc2cc(Cl)ccc12` (centres undefined) [CHLOROQUINE], the Drug uptake entry in data set [10], in [11], in data set [12] and in data set [13] was “Not Active” in each case.
`N#Cc1cc(F)cc(OCc2cccc3nc(N)nc(N)c23)c1`: the “Cp(f)” value in the data set on Plasma is on record as 173 nM. Moreover, the Papp A→B at 2 µM in data set [2] was 13 ×10⁻⁶ cm/s. Further, the logD in data set [3] is 1.9. This compound gave an IC50 on Dihydrofolate reductase of 52 µM. Also, the solubility (kinetic) in data set [6] was 31 µM (≈ 9.59 µg/mL). The half-life at 1 µM in data set [8] is above 115 min. In addition, the microsomal CLint at 1 µM in [9] was below 8.4 µL/min/mg.
In turn, `COC[C@@H](C)Oc1cccc2nc(N)nc(N)c12` had an IC50 against Dihydrofolate reductase of 25 µM. This lies in the double-digit micromolar range.
The same measure, in the same setting: under `Nc1nc(N)c2c(COc3cccc(Cl)c3)cccc2n1` stands 38 µM; under `CC1(COc2cccc3nc(N)nc(N)c23)COC1`, 15 µM.

(Values after ChEMBL document CHEMBL4007459, “Design of Potent mRNA Decapping Scavenger Enzyme (DcpS) Inhibitors with Improved Physicochemical Properties To Investigate the Mechanism of Therapeutic Benefit in Spinal Muscular Atrophy (SMA)” (J Med Chem, 2017).)
